Molecules are shown by their SMILES. Where two headings read alike, the source gives them in different places. A value given as a limit tells only on which side of the number the result lay.

Data set [1] has as its system H1703 (lung) and HeLa (cervix). As to the kind of experiment: ATP assay / cellular toxicity, covering both cell lines. In kind it is cell-based, human. The settings on record: two cell lines tested, ATP levels after 48 h.
A further data set has as its system H1703. As to the kind of experiment: ATP Assay (CellTiter-Glo), cellular ATP levels as surrogate for cell viability. In kind it is cell-based, human. The procedure:
(§1) ATP Assay. […] At that time, media was removed and replaced with a solution of CellTiter-Glo reagent (Promega) in PBS. After ten minutes, luminescence was read using an EnVision multilabel plate reader (Perkin-Elmer) and signal intensity was calculated relative to in-plate DMSO control wells.
(§2) We next sought to determine the performance of the synthetic analogs relative to PL in cells. […] As a second assay, effects of compound treatments on ATP levels, a surrogate for cell viability, were measured after 48 hours.
(§3) Assays were performed in 384-well plates on two human cancer cell lines, H1703 (lung) and HeLa (cervix).
(In ATP-based viability assays light output follows the ATP content of the culture.)

The test system of a further data set is HeLa. The description is as above. In kind it is cell-based, human. As for the experimental part: as §1, §2, §3
The subject of data set [2] is H1703 (lung) and HeLa (cervix). As to the kind of experiment: ROS Assay (CM-H2DCF-DA, automated microscopy). The following applies: 90 minutes after compound treatment. In kind it is cell-based, human.
The subject of data set [3] is EJ bladder carcinoma line. As to the kind of experiment: Glutathione Assay (GSH/GSSG-Glo), total cellular glutathione. The settings on record: EJ cells, 3 h treatment.
Data set [4] deals with HeLa cells. As to the kind of experiment: Immunofluorescence Detection of Glutathionylated Proteins. The following applies: for elevation of protein glutathionylation (in words): HeLa cells, monoclonal antibody recognizing glutathione.
Data set [5] can be described thus: stability at room temperature (remark with characterisation data). In kind it is physicochemical.
The test system of another data set is BJ vs. BJ-ELR. As to the kind of experiment: Assessment of Cancer/Normal Selective Toxicity (crystal violet). The settings on record: crystal violet staining, 48 h. In kind it is cell-based, human.
Data set [6] deals with HeLa cells. As to the kind of experiment: Glutathione Assay (GSH/GSSG-Glo), total cellular glutathione. In kind it is cell-based, human. The settings on record: 6 h treatment.
[7] abbreviates: Table 2; cellular ATP levels, 48 h; read-out: EC50 H1703.
[8] abbreviates: Table 2; cellular ATP levels, 48 h; read-out: EC50 HeLa.
Where [9] appears, read: Homo sapiens, NCI-H1703; Table 1; cellular ATP levels, 48 h; read-out: EC50 H1703.
The mark [10] stands for this setting: Homo sapiens, HeLa; Table 1; cellular ATP levels, 48 h; read-out: EC50 HeLa.
Setting [11] is: Homo sapiens, NCI-H1703; Table 2; cellular ATP levels, 48 h; read-out: EC50 H1703.
Setting [12] is: Homo sapiens, HeLa; Table 2; cellular ATP levels, 48 h; read-out: EC50 HeLa.

Broadly, the EC50 is the concentration that produces a half-maximal response. Consider `COC(=O)CSC1CCN(C(=O)/C=C/c2cc(OC)c(OC)c(OC)c2)C(=O)C1` (stereo not drawn) [compound 25], for which, in [1], the “viability / cellular toxicity (in words)” value is listed as “substantially less potent than PL at inducing cancer cell death”. Further, the concentration for a half-maximal effect (EC50) was 7.9 µM in the data set on H1703 (read-out: EC50 H1703; Table 2; cellular ATP levels, 48 h) and greater than 20 µM with HeLa (read-out: EC50 HeLa; Table 2; cellular ATP levels, 48 h). The “elevation of ROS levels (in words)” value in [2] was “substantially less potent than PL”.

`COc1cc2c(c(OC)c1OC)CCC(C(=O)N1CCC=CC1=O)=C2` [compound 29, 1-(5,6,7-trimethoxy-3,4-dihydronaphthalene-2-carbonyl)-5,6-dihydropyridin-2(1H)-one]: the “viability / cellular toxicity (in words)” value in [1] is on record as “diminished cell death relative to PL”. In addition, the values for the EC50 in the data set on H1703 (setting [7]) and with HeLa (setting [8]) were 14 µM and greater than 20 µM, respectively. Moreover, the “decrease in total cellular glutathione” value in [3] is on record as “ca. 60%”. The “elevation of ROS levels (in words)” value in [2] is recorded as “robust enhancement of ROS levels”. In the data set with HeLa cells [4], the “elevation of protein glutathionylation (in words)” value is given as “minimal elevation”.

In the case of `COc1cc(/C=C/C(=O)N2CCC=C(C#CCN(C)C)C2=O)cc(OC)c1OC` [(E)-3-(3-(dimethylamino)prop-1-ynyl)-1-(3-(3,4,5-trimethoxyphenyl)prop-2-enoyl)-5,6-dihydropyridin-2(1H)-one], in data set [5], the “stability at room temperature” value is given as “decomposes slowly at room temperature”.

Consider `COc1cc(/C=C/C(=O)N2CCC=C(C#CC3CC3)C2=O)cc(OC)c1OC` [compound 5, (E)-3-(cyclopropylethynyl)-1-(3-(3,4,5-trimethoxyphenyl)prop-2-enoyl)-5,6-dihydropyridin-2(1H)-one], for which the EC50 was determined as 0.7 µM in the data set on H1703 (setting [9]) and 1.3 µM in the data set with HeLa (setting [10]). For the same compound, the “elevation of protein glutathionylation (in words)” value in the data set on HeLa cells [4] is “large and rapid elevations in protein glutathionylation”.

Turning to `S=C=NCCc1ccccc1` [Phenethylisothiocyanate, reference compound], the “selective toxicity toward transformed BJ-ELR over BJ fibroblasts (in words)” value in the data set on BJ vs. BJ-ELR is “showed selectivity in this assay”.

For `COc1cc(/C=C/C(=O)N2CCC=C(C#CC3(O)CCCCC3)C2=O)cc(OC)c1OC` [compound 36], the 50% effective concentration (EC50) with H1703 (setting [11]) was 0.5 µM; in the data set with HeLa (setting [12]), 1.5 µM.

In the case of `COc1cc(/C=C(\F)C(=O)N2CCC=CC2=O)cc(OC)c1OC` [compound 58], the EC50 was 8 µM with H1703 (setting [11]) and 11 µM with HeLa (setting [12]).

`COc1cc(/C=C/C(=O)N2CCC=C(C#CCc3ccccc3)C2=O)cc(OC)c1OC` [compound 63]: the EC50 amounted to 2 µM with H1703 (setting [11]) and 10 µM with HeLa (setting [12]).

In the case of `O=C1C=CCCN1C(=O)c1cc2ccccc2s1` [compound 10], the 50% effective concentration (EC50) is 18 µM in the data set on H1703 (setting [9]) and greater than 20 µM in the data set with HeLa (setting [10]).

`C=C(C)C(=O)N1CCC=CC1=O` [compound 73]: the EC50 in the data set on H1703 (setting [11]) amounted to 4.7 µM; in the data set on HeLa (setting [12]), 19 µM.

In the case of `O=C1C=CCCN1C(=O)/C(F)=C/c1ccccc1` [compound 70], the values for the EC50 with H1703 (setting [11]) and with HeLa (setting [12]) were 10 µM and greater than 20 µM, respectively.

For the compound `O=C1C=CCCN1S(=O)(=O)/C=C/c1ccccc1` [compound 16], the EC50 worked out at 2.7 µM in the data set on H1703 (setting [9]) and 4.1 µM in the data set with HeLa (setting [10]).

On to `COc1cc(/C=C/C(=O)N2CCC=CC2=O)cc(OC)c1OC` [compound 1, piperlongumine, reference compound], for which the “decrease in total glutathione (in words)” value in the data set on HeLa cells [6] is given as “most effective”. The EC50 stood at 2.8 µM with H1703 (Homo sapiens, NCI-H1703, 48 h, read-out: EC50 H1703) and 7.1 µM with HeLa (Homo sapiens, HeLa, 48 h, read-out: EC50 HeLa). The “decrease in total cellular glutathione” value in [3] is “ca. 60%”. Besides, the “elevation of protein glutathionylation (in words)” value in the data set with HeLa cells [4] was “large and rapid elevations in protein glutathionylation”. Besides, the “reversal of protein glutathionylation by 0.1 M dithiothreitol” value in the data set with HeLa cells [4] (treatment with 0.1 M dithiothreitol) is “could not be reversed”.

For the compound `O=Cc1ccc(/C=C/C(=O)N2CCC=CC2=O)cc1` [compound 14], the 50% effective concentration (EC50) is 5 µM in the data set with H1703 (setting [11]) and 8 µM in the data set with HeLa (setting [12]).

Regarding `O=C1C=CCCN1C(=O)/C=C/c1ccccc1Cl` [compound 49], the EC50 with H1703 (setting [7]) was 4 µM; in the data set with HeLa (setting [8]), 7.5 µM.

Regarding `COc1cc(/C=C/C(=O)N2CCC(C)=CC2=O)cc(OC)c1OC` [compound 26], the EC50 in the data set with H1703 (setting [7]) and with HeLa (setting [8]) was greater than 20 µM throughout.

For the compound `COc1cc(/C=C/C(=O)N2CCCCC2=O)cc(OC)c1OC` [compound 2, 1-[(2E)-3-(3,4,5-trimethoxyphenyl)prop-2-enoyl]piperidin-2-one], the 50% effective concentration (EC50) in the data set with H1703 (setting [9]), in the data set on H1703 (setting [7]), with HeLa (setting [10]) and in the data set on HeLa (setting [8]) was greater than 20 µM in each case. In data set [2], the “elevation of ROS levels (in words)” value is reported as “neither elevated ROS levels”.

Take `COc1cc(/C=C/C(=O)N2CC(c3cccs3)C=CC2=O)cc(OC)c1OC` (stereo not drawn) [compound 51]: the EC50 with H1703 (setting [7]) stood at 6.5 µM; with HeLa (setting [8]), 15 µM.

In the case of `COc1cc(/C=C/C(=O)N2C(=O)C=CCC2c2ccccc2)cc(OC)c1OC` (stereo not drawn) [compound 14], the values for the EC50 in the data set with H1703 (setting [9]) and with HeLa (setting [10]) were 3.6 µM and 6.8 µM, respectively.

For the compound `O=C1C=CCCN1C(=O)/C=C/c1cccc(Br)c1` [compound 62], the EC50 in the data set on H1703 (setting [11]) stood at 5 µM; in the data set with HeLa (setting [12]), 7 µM.

For `COc1cc(/C=C/C(=O)N2CCC=CC2=O)c(F)c(OC)c1OC` [compound 23], the EC50 in the data set with H1703 (setting [11]) is 0.8 µM; with HeLa (setting [12]), 3 µM.

As for `COc1cc(/C=C/C(=O)N2CCC=C(c3cccnc3)C2=O)cc(OC)c1OC` [compound 24], the 50% effective concentration (EC50) in the data set on H1703 (setting [11]) and in the data set on HeLa (setting [12]) was greater than 20 µM in each case.

As to `COc1cc(/C=C/C(=O)N2CCC=C(C#CC3CCCC3)C2=O)cc(OC)c1OC` [compound 17], the concentration giving a half-maximal response (EC50) worked out at 1 µM in the data set with H1703 (setting [11]) and 3 µM in the data set with HeLa (setting [12]).

`COc1cc(/C=C/C(=O)N2C(=O)C=CCC2C2CCCCC2)cc(OC)c1OC` (stereo not drawn) [compound 11]: the results for the EC50 with H1703 (setting [11]) and in the data set with HeLa (setting [12]) were 6 µM and 7 µM, respectively.

Consider `O=C1C=CCCN1S(=O)(=O)/C=C/c1ccccc1` [compound 52, 1-{[(E)-2-phenylvinyl]sulfonyl}-5,6-dihydropyridin-2(1H)-one], for which the EC50 in the data set on H1703 (setting [7]) turned out to be 2.7 µM; in the data set with HeLa (setting [8]) it was 4.1 µM. Also, the “selective toxicity toward transformed BJ-ELR over BJ fibroblasts (in words)” value in the data set with BJ vs. BJ-ELR is on record as “selectivity comparable to PL”.

As to `COC(=O)CSC1CCN(C(=O)/C=C/c2cc(OC)c(OC)c(OC)c2)C(=O)C1` (stereo not drawn) [Cpd. 7], the figures for the EC50 with H1703 (setting [9]) and in the data set with HeLa (setting [10]) were 7.9 µM and greater than 20 µM, respectively.

Turning to `COc1cc(/C=C/C(=O)N2CCC=C(c3ccc(F)cc3)C2=O)cc(OC)c1OC` [compound 20], the 50% effective concentration (EC50) with H1703 (setting [11]) and with HeLa (setting [12]) was greater than 20 µM in each case.

`COc1cc(/C=C/C(=O)N2CCC=C(C)C2=O)cc(OC)c1OC` [compound 3, (E)-3-methyl-1-(3-(3,4,5-trimethoxyphenyl)prop-2-enoyl)-5,6-dihydropyridin-2(1H)-one]: the EC50 in the data set with H1703 (setting [9]), in the data set on H1703 (setting [7]), in the data set on HeLa (setting [10]) and in the data set on HeLa (setting [8]) was greater than 20 µM each time.

Regarding `C/C(=C\C(=O)N1CCC=CC1=O)c1ccccc1` [compound 27], the values for the EC50 in the data set on H1703 (setting [7]) and in the data set with HeLa (setting [8]) were 14 µM and greater than 20 µM, respectively.

Regarding `COc1cc(/C=C/C(=O)N2CCC=C(c3ccccc3)C2=O)cc(OC)c1OC` [compound 54], the concentration giving a half-maximal response (EC50) with H1703 (setting [7]) and in the data set on HeLa (setting [8]) was greater than 20 µM in each case.

Consider `C=C(C)C(=O)NC(=O)/C=C/C` [Cpd. 76, (E)-N-methacryloylbut-2-enamide], for which the EC50 with H1703 (setting [11]) is 8 µM; in the data set on HeLa (setting [12]) it was greater than 20 µM.

With `COc1cc2c(c(OC)c1OC)CCC(C(=O)N1CCC=CC1=O)=C2` [compound 11], the EC50 in the data set with H1703 (setting [9]) is 14 µM; in the data set on HeLa (setting [10]), greater than 20 µM.

Take `O=C1C=CCCN1C(=O)/C=C/c1ccccc1Cl` [compound 13]: the EC50 in the data set with H1703 (setting [9]) is 4 µM; in the data set with HeLa (setting [10]) it was 7.5 µM.
